The values below come from US20170307610A1, “COMPOUNDS THAT BIND DYSTROGLYCAN AND USES THEREOF” (OREGON HEALTH & SCIENCE UNIVERSITY, priority 2014, published 2017).

One test deals with LN18 human glioma cells. The experiment in a line: Laminin internalization in vector or LARGE expressing cells, flow cytometry. The format is cell-based. The source says:
Loss of DG's laminin binding function is a cause of some congenital muscular dystrophies (CMDs) and is a frequent defect in cancers including those of the breast, prostate, colon, and brain (Akhavan A et al, 2012 supra; Beltran-Valero de Bernabe et al, 2009 infra). This loss of function arises from altered glycosylation of DG and can be restored in many carcinoma and glioblastoma cells by expression of the enzyme LARGE, a glycosyltransferase that confers laminin-binding properties to DG (Akhavan et al., 2012; Beltran-Valero de Bernabe D et al, J Biol Chem 284, 11279-11284 (2009); incorporated by reference herein. Based on these facts in light of the disclosure herein, it was hypothesized that laminin internalization would be severely disrupted in cancer cells lacking DG activity and enhanced by the restoration of such activity. This hypothesis was tested in MDA-MB-231 human breast cancer cells and LN18 human glioma cells, both of which lack DG glycosylation and function. […] Expression of LARGE restored normal glycosylation of DG as determined by western blot analysis with IIH6 antibody (FIG. 10A, LARGE) and functional interaction of DG in the laminin assembly assay (FIG. 10B, LARGE). These cells were subsequently assayed for laminin internalization by flow cytometry.
(§1) Flow Cytometry—Cells were plated in 12 well plates at 200,000 cells/well. The following day, media was changed to serum-free media with or without 10 μg/ml rhodamine laminin or 40 μg/ml FITC-dextran (500S-Sigma-Aldrich Corp., St. Louis, Mo., USA). Unless otherwise indicated, cells were incubated 18-24 hrs, washed once with PBS, and cells trypsinized. Cells were washed in 5 ml cold PBS/1 mM EDTA, pelleted, and resuspended in 1 ml PBS/1 mM EDTA. Using a BD FACScan flow cytometer (BD Biosciences, San Jose, Calif., USA), 10,000 cells/well were counted, background fluorescence from the cell counts with no added laminin subtracted and the mean fluorescence intensity values reported. Graphed data are compiled from duplicate wells from each experiment with a minimum of three separate experiments, unless indicated otherwise.
(In general: In flow cytometry, cells or beads pass a laser one at a time.)

The next test deals with E3D1 MECs. The test is described as follows: Pulsed time course of Rhod-Ln internalization, flow cytometry. Type of test: cell-based, mouse. As for the experimental part: To explore the dynamics of laminin internalization, steady-state time course experiments (measuring internalization in the continuous presence of labeled laminin) and pulsed time course experiments were performed. In pulsed time course experiments, the cells were exposed to exogenous Rhod-Ln at 4° C. to prevent internalization, excess unbound Rhod-Ln was washed away, and then cells were returned to 37° C. to allow synchronized internalization and trafficking to proceed. […] Following pulsed and synchronized laminin exposure, Rhod-Ln was again observed to internalize within 1 hour, but reached a maximum at 8 hours, after which the levels of internal laminin declined (FIG. 4A). After 24 hours, internal Rhod-Ln levels declined to ˜37% of the maxima, indicating degradation (MFI: 315±3.5 to 119±11.5). To determine if laminin was degraded using classical degradation pathways, pulsed time course experiments in the presence of leupeptin (lysosome inhibitor) or […] (proteasome inhibitor) were performed.
Laminin labeling—Laminin-111 (1 mg) (Sigma-Aldrich Corp., St. Louis, Mo., USA) was dialyzed twice overnight against 500 ml of PBS with 10 μM CaCl2. The dialyzed laminin was then reacted with 10 μg NHS-rhodamine, or a 50 fold molar excess of NHS409 CypHer5 (GE) for 2 hr on ice, followed by dialysis twice overnight against 500 ml of PBS with 10 μM CaCl2.
as §1

In a further test the test system is MEpG MECs (DG−/− or DG+). The experiment in a line: Laminin internalization in dystroglycan-deleted or re-expressing cells, flow cytometry. Particulars: n=6. The format is cell-based, mouse. An excerpt: Genetic manipulation of laminin receptor expression was employed in order to identify the specific receptor(s) mediating laminin internalization. […] To test the role of DG in laminin internalization, an MEC cell line containing an engineered dystroglycan deletion (MEpG) was used (Weir M L et al, 2006 supra). The MEpG cell line was infected with retroviral empty vector (creating control DG−/− cells) or retrovirus expressing DG (creating DG+ cells). Immunoblotting confirmed the expected presence or absence of DG expression in these cell types (FIG. 11A). […] The compiled mean fluorescence intensity (MFI) data of cells expressing DG was nearly four-fold higher than cells lacking DG expression (DG+=18.04±4.6; DG−/−=4.84±1.43, n=6, FIG. 7C). Therefore, the majority of laminin internalization observed in functionally normal mammary epithelial cells appeared to depend on dystroglycan function.
Cell culture—Primary mammary epithelial cells from control or ΔDGK14-Cre mid-pregnant mice were obtained as previously described (Weir et al, 2006 supra). DG-knockout (MEpG and MEpL cells), and WT E3D1 mammary epithelial cells were established as described previously (Weir et al, 2006 supra) from floxed-DG mice. β1 int-knockout (E3D1 cre19) MECs were established from floxed -β1 int primary MECS, as above. MECs were grown in DME/F12, 2% FBS, 10 μg/ml insulin and 5 ng/ml EGF (BD Biosciences, San Jose, Calif., USA). Human DG, β1 int, or wedge β1 int genes (Luo B H et al, Proc Natl Acad Sci USA 102, 3679-3684 (2005); incorporated by reference herein) were cloned into the retroviral expression vector, pBMN-IRES-PURO as described previously (Weir et al, 2006 supra) and verified by sequencing. […] These cultures produced >95% astrocytes as determined by staining with GFAP astrocyte marker antibody.
Flow Cytometry—Cells were plated in 12 well plates at 200,000 cells/well. […] Using a BD FACScan flow cytometer (BD Biosciences, San Jose, Calif., USA), 10,000 cells/well were counted, background fluorescence from the cell counts with no added laminin subtracted and the mean fluorescence intensity values reported. […]

Where only a bound is given, the exact number is not on record here.

Turning to “Rhod-Ln: laminin-111 labeled with NHS-rhodamine; dystroglycan binding reagent”, the “increase in MFI of internalized laminin, LARGE vs vector” value in the test with LN18 human glioma cells (LN18) was determined as 10 fold. Also, in the test on LN18 human glioma cells (LN18 LARGE, n=3), the “MFI of internalized laminin, LARGE expressing cells” value was 1.49±0.049. Besides, the “MFI of internalized laminin, vector cells” value with LN18 human glioma cells (LN18 empty vector, n=3) is given as 0.145±0.155. Further, in the test on E3D1 MECs (pulsed and synchronized laminin exposure, 4° C. then 37° C.), the “time at which Rhod-Ln was observed to internalize” value is no more than 1 h. Moreover, in the test with E3D1 MECs (pulsed laminin exposure), the “time of maximum internal laminin” value was found to be 8 h. The “MFI of internal Rhod-Ln after 24 hours” value in the test with E3D1 MECs (pulsed, 24 hours) is listed as 119±11.5. Also, in the test with E3D1 MECs (pulsed, after 24 hours), the “internal Rhod-Ln level relative to the maxima” value is recorded as roughly 37%. In the test with E3D1 MECs (pulsed, maximum (8 hours)), the “MFI of internal Rhod-Ln at the maximum” value amounted to 315±3.5. Besides, the “MFI of internalized laminin, DG+ cells” value in the test on MEpG MECs (DG−/− or DG+) (cells expressing DG, 18 hours) is given as 18.04±4.6. Besides, the “MFI of internalized laminin, DG−/− cells” value with MEpG MECs (DG−/− or DG+) (cells lacking DG, 18 hours) worked out at 4.84±1.43. Also, in the test with MEpG MECs (DG−/− or DG+) (compiled MFI), the “more laminin internalized by DG+ MECs than DG−/− MECs” value amounted to 380%.
